Laboratory results reported in publication PMC4188773 (Cell calcium, 2014).
In brackets after ≈: the same amount, converted by molar mass. Entries after “also recorded” stand apart in the source; their conditions may differ. Like-named read-outs stand apart in the source and are kept apart here.

Key:
[1] = biological target: T1, mouse eugenol OR (mOR-EG) (Mus musculus, UniProt Q920P2); test: dual read-out assay, mOR-EG/PLC and mOR-EG/AC responses compared; format: cell-based; settings: for AC-/PLC- mediated Ca2+ response (result in words): both read-outs, up to 1-5 mM; for functional bias between PLC and AC pathways (in words): pair-wise comparison of EC50 values
T1 sequence (Q920P2 1-313): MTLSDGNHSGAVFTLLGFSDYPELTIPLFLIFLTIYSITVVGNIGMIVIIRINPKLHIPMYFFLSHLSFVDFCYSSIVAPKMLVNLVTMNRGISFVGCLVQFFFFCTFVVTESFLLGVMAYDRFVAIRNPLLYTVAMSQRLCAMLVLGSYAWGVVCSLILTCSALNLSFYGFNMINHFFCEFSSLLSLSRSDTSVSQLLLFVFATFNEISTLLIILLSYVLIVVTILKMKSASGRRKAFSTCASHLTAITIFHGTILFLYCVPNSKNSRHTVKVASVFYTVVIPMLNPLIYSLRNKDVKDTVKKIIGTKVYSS

[2] = pH7; source not stated; cited from earlier work
[3] = source not stated; cited from earlier work
[4] = tested on: adenylate cyclase; test: forskolin-induced Ca2+ influx in mOR-EG/Gαs
[5] = tested on: HEK293T cells; test: control HEK293T cells lacking components of the read-out; format: cell-based; settings: eugenol 0.5-2mM; forskolin 20μM; n>500
[6] = tested on: CNGC-camp; test: stimulation of endogenous purinergic Gαq pathway, CNGC-camp read-out; format: cell-based, rat; settings: 100μM, saturating
[7] = biological target: T1, mouse eugenol OR (mOR-EG); test: mOR-EG/AC Ca2+ imaging: mOR-EG + Gαolf + CNGC-camp in HEK293T cells; format: cell-based; settings: for decay time 90% to 10%, AC-dependent Ca2+ response / time of peak, AC-dependent Ca2+ response / time to rise 10% to 90%, AC-dependent Ca2+ response: saturating response parameters
[8] = biological target: T1, mouse eugenol OR (mOR-EG); test: mOR-EG/PLC Ca2+ imaging: mOR-EG + Gα15 in HEK293T cells; format: cell-based; settings: for decay time 90% to 10%, PLC-dependent Ca2+ response / time of peak, PLC-dependent Ca2+ response / time to rise 10% to 90%, PLC-dependent Ca2+ response: saturating response parameters
[9] = biological target: T1, mouse eugenol OR (mOR-EG); format: cell-based; settings: up to 1 mM

| Compound | AC-/PLC- mediated Ca2+ response (result in words) [1] | decay time 90% to 10%, AC-dependent Ca2+ response [7] | time of peak, AC-dependent Ca2+ response [7] | time to rise 10% to 90%, AC-dependent Ca2+ response [7] | decay time 90% to 10%, PLC-dependent Ca2+ response [8] | time of peak, PLC-dependent Ca2+ response [8] | time to rise 10% to 90%, PLC-dependent Ca2+ response [8] | functional bias between PLC and AC pathways (in words) [1] | further results |
| --- | --- | --- | --- | --- | --- | --- | --- | --- | --- |
| CC(=O)CCc1ccc(O)cc1 [raspberryketone, raspberry ketone] | no effects | – | – | – | – | – | – | – | AC-/PLC- mediated Ca2+ response (result in words) ([1]; listed as raspberry ketone): failed to activate any response |
| CC(C)c1ccc(O)cc1 [4-isopropylphenol] | failed to activate any response; also recorded: no effects | – | – | – | – | – | – | – | solubility [2]: 15 mM (≈ 2040 µg/mL); logP [3]: 3 |
| CC(C)(C)c1ccc(O)cc1 [4-tert-butylphenol] | failed to activate any response; also recorded: no effects | – | – | – | – | – | – | – | – |
| C=C[C@@]1(C)CC(=O)[C@]2(O)[C@@]3(C)[C@@H](O)CCC(C)(C)[C@@H]3[C@H](O)[C@H](OC(C)=O)[C@@]2(C)O1 [forskolin] | – | – | – | – | – | – | – | – | Trise of Ca2+ influx on re-addition of 2 mM Ca2+ ([4]; 10μM forskolin applied in 0-Ca2+, Ca2+ added 60 s after stimulation (Fig.3F)): 24.3 ± 3.1 s; effect on Ca2+ concentration ([4]; 10 μM, 5 sec pulse, mOR-EG/Gαs(olf) cells): increased the Ca^2+ concentration; Trise of response to forskolin ([4]; 10μM, extracellular Ca2+ present (Fig.3E)): 76.7 ± 5.7 s; Ca2+ response in cells expressing mOR-EG and Gαolf without CNGC-camp [5]: did not generate noticeable Ca^2+ responses |
| Nc1ncnc2c1ncn2[C@@H]1O[C@H](COP(=O)(O)OP(=O)(O)OP(=O)(O)O)[C@@H](O)[C@H]1O [ATP] | – | – | – | – | – | – | – | – | activation of CNGC-camp [6]: did not induce appreciable activation of CNGC-camp |
| isoeugenol | – | 104 ± 4.8 s | 95.3 ± 4.8 s | 36.7 ± 2.7 s | 54.5 ± 2.6 s | 37.1 ± 3.5 s | 14.8 ± 1.6 s | biased activation of the PLC pathway | normalized peak magnitude, mOR-EG/AC response ([7]; normalized to eugenol): 0.14±0.11; normalized peak magnitude, mOR-EG/PLC response ([8]; normalized to eugenol): 0.38±0.03; slow Gαs(olf)-dependent response in dual-response cells [9]: failed to evoke noticeable Gαs(olf)-dependent Ca^2+ signal; slow Gαs(olf)-dependent response in dual-response cells ([9]; listed as Isoeugenol): not able to evoke a slow Gαs(olf)-dependent response; potency in mOR-EG/PLC signaling in comparison to mOR-EG/AC signaling ([1]; ratio of EC50 values): ~ 8 fold |
| C=CCc1ccc(OC(C)=O)c(OC)c1 [acetyl eugenol] | – | 125.5 ± 5.1 s | 90.8 ± 3.4 s | 27.6 ± 1.7 s | 44 ± 1 s | 19.6 ± 0.9 s | 7.7 ± 0.4 s | activated both pathways with similar EC50 values | solubility [2]: 1.4 mM (≈ 289 µg/mL); logP [3]: 2.7; EC50 [7]: 373 ± 49 µM; EC50 [8]: 348 µM |
| CCC(C)(C)C1CCC(=O)CC1 [orivone] | – | 101 ± 5 s | 94.9 ± 5.3 s | 36.4 ± 2.6 s | 47.6 ± 4.1 s | 29.8 ± 2.3 s | 8 ± 1 s | activated both pathways with similar EC50 values | – |
